What was measured:
Format in all cases: in vivo, LDLR KO mice
ANGPTL3 protein = assay: Example 14: RNAi agent and statin, serum ANGPTL3 protein by ELISA in LDLR knockout mice; details: no injection
From the text: (§1) To evaluate the effect of co-administration of RNAi agents and statins in a disease model, LDLR KO mice were commercially obtained (The Jackson Laboratory). For three weeks prior to the onset of the study, forty-one (41) male 7 to 8 week old LDLR KO mice were placed on a high fat (“western”) diet (Teklad Custom Diets TD.88137), and remained on that diet throughout the duration of the study. Pre-dose serum samples were taken on study Day 1 after a four hour fast. The dosing regimen for the study is recited in the following Table 72:
(§2) • Mice were treated at 40 mg/kg for the first 11 days, then switched to 20 mg/kg thereafter.
(§3) The vehicle used for the oral gavage in the study was a 1:1 mixture of Ora-Plus®: Ora-Sweet® solution, which were acquired commercially. For the preparation of the atorvastatin oral gavage administrations, the respective desired dose of atorvastatin was first dissolved in sterile water (0.3 mL water per 1 mL of desired formulation) and vortexed until smooth, followed by the addition of a mixture of 1:1 Ora-Plus®: Ora-Sweet® solution (0.7 mL vehicle per 1 mL of desired formulation) and vortexed. On day 1 and for each day thereafter an oral gavage dose was administered for each of the Groups except for Group 2. On Day 23, Groups 1, 2, 3, and 4 received a single subcutaneous administration of 2.5 mg/kg dose ([…] solution) of an ANGPTL3 RNAi agent in D5W (dextrose in 5% water), or vehicle control (D5W) with no RNAi agent.
(§4) The RNAi agent tested (AD05488) included a modified sequence and an N-acetyl-galactosamine-containing targeting ligand conjugated to the 5′ terminal end of the sense strand. (See Tables 3, 4, and 5 for modified sequences and targeting ligand structures). The injections were performed between the skin and muscle (i.e. subcutaneous injections) into the loose skin over the neck and shoulder area. Serum was collected on days 8, 15, 22 (pre-RNAi agent injection), 29, 36, 43, and 50. LDLR KO mice were fasted for four hours prior to each collection.
(§5) ANGPTL3 protein levels in serum were measured by ELISA assay (R&D Systems), according to the manufacturer's recommendations. Among other biomarkers, triglycerides, total cholesterol, and low-density lipoprotein (LDL) in serum were measured on a Cobas® Integra 400 (Roche Diagnostics), according to the manufacturer's recommendations.
(§6) The ANGPTL3 protein levels, triglyceride levels, total cholesterol levels, HDL levels, and LDL levels for each animal were normalized. For normalization, respective levels of ANGPTL3 protein, TG, total cholesterol, or LDL for each animal at a time point was divided by the pre-treatment level of expression in that animal (in this case pre-dose levels on Day 1) to determine the ratio of expression “normalized to pre-treatment.” Data from the study set forth in this Example are shown in the following Tables 73-76: […]

ANGPTL3 gene [1] = assay: Example 14: RNAi agent and statin, serum LDL in LDLR knockout mice; details: for Avg LDL normalized to pre-treatment: no injection
From the text: as §1, §2, §3, §4, §5, §6

ANGPTL3 gene [2] = assay: Example 14: RNAi agent and statin, serum triglycerides in LDLR knockout mice; details: for Avg TG normalized to pre-treatment: no injection
From the text: as §1, §2, §3, §4, §5, §6

ANGPTL3 gene [3] = assay: Example 14: RNAi agent and statin, serum total cholesterol in LDLR knockout mice; details: for Avg Total Chol normalized to pre-treatment: no injection
From the text: as §1, §2, §3, §4, §5, §6

[4] = Group 5: 10 mg/kg daily oral gavage atorvastatin, Day 8
[5] = Group 5: 10 mg/kg daily oral gavage atorvastatin, Day 15
[6] = Group 5: 10 mg/kg daily oral gavage atorvastatin, Day 22
[7] = Group 5: 10 mg/kg daily oral gavage atorvastatin, Day 29
[8] = Group 5: 10 mg/kg daily oral gavage atorvastatin, Day 36
[9] = Group 5: 10 mg/kg daily oral gavage atorvastatin, Day 43
[10] = Group 5: 10 mg/kg daily oral gavage atorvastatin, Day 50
[11] = Group 6: 20 mg/kg* daily oral gavage atorvastatin (40 mg/kg first 11 days), Day 8
[12] = Group 6: 20 mg/kg* daily oral gavage atorvastatin (40 mg/kg first 11 days), Day 15
[13] = Group 6: 20 mg/kg* daily oral gavage atorvastatin (40 mg/kg first 11 days), Day 22
[14] = Group 6: 20 mg/kg* daily oral gavage atorvastatin (40 mg/kg first 11 days), Day 29
[15] = Group 6: 20 mg/kg* daily oral gavage atorvastatin (40 mg/kg first 11 days), Day 36
[16] = Group 6: 20 mg/kg* daily oral gavage atorvastatin (40 mg/kg first 11 days), Day 43
[17] = Group 6: 20 mg/kg* daily oral gavage atorvastatin (40 mg/kg first 11 days), Day 50
[18] = daily atorvastatin by oral gavage, LDLR KO mice on high fat diet

Compound: CC(C)c1c(C(=O)Nc2ccccc2)c(-c2ccccc2)c(-c2ccc(F)cc2)n1CC[C@@H](O)C[C@@H](O)CC(=O)O [atorvastatin, reference compound]
- Avg ANGPTL3 normalized to pre-treatment (ANGPTL3 protein; [4]): 1.577
- Avg ANGPTL3 normalized to pre-treatment (ANGPTL3 protein; [5]): 1.839
- Avg ANGPTL3 normalized to pre-treatment (ANGPTL3 protein; [6]): 1.693
- Avg ANGPTL3 normalized to pre-treatment (ANGPTL3 protein; [7]): 1.764
- Avg ANGPTL3 normalized to pre-treatment (ANGPTL3 protein; [8]): 1.851
- Avg ANGPTL3 normalized to pre-treatment (ANGPTL3 protein; [9]): 1.758
- Avg ANGPTL3 normalized to pre-treatment (ANGPTL3 protein; [10]): 1.878
- Avg ANGPTL3 normalized to pre-treatment (ANGPTL3 protein; [11]): 1.553
- Avg ANGPTL3 normalized to pre-treatment (ANGPTL3 protein; [12]): 1.924
- Avg ANGPTL3 normalized to pre-treatment (ANGPTL3 protein; [13]): 1.871
- Avg ANGPTL3 normalized to pre-treatment (ANGPTL3 protein; [14]): 1.767
- Avg ANGPTL3 normalized to pre-treatment (ANGPTL3 protein; [15]): 1.981
- Avg ANGPTL3 normalized to pre-treatment (ANGPTL3 protein; [16]): 1.935
- Avg ANGPTL3 normalized to pre-treatment (ANGPTL3 protein; [17]): 1.847
- Avg LDL normalized to pre-treatment (ANGPTL3 gene [1]; [4]): 0.778
- Avg LDL normalized to pre-treatment (ANGPTL3 gene [1]; [5]): 0.695
- Avg LDL normalized to pre-treatment (ANGPTL3 gene [1]; [6]): 0.861
- Avg LDL normalized to pre-treatment (ANGPTL3 gene [1]; [7]): 0.881
- Avg LDL normalized to pre-treatment (ANGPTL3 gene [1]; [8]): 0.996
- Avg LDL normalized to pre-treatment (ANGPTL3 gene [1]; [9]): 0.929
- Avg LDL normalized to pre-treatment (ANGPTL3 gene [1]; [10]): 0.872
- Avg LDL normalized to pre-treatment (ANGPTL3 gene [1]; [11]): 0.490
- Avg LDL normalized to pre-treatment (ANGPTL3 gene [1]; [12]): 0.556
- Avg LDL normalized to pre-treatment (ANGPTL3 gene [1]; [13]): 0.687
- Avg LDL normalized to pre-treatment (ANGPTL3 gene [1]; [14]): 0.700
- Avg LDL normalized to pre-treatment (ANGPTL3 gene [1]; [15]): 0.716
- Avg LDL normalized to pre-treatment (ANGPTL3 gene [1]; [16]): 0.689
- Avg LDL normalized to pre-treatment (ANGPTL3 gene [1]; [17]): 0.687
- reduction in LDL (ANGPTL3 gene [1]; [18]): 30-45%
- Avg TG normalized to pre-treatment (ANGPTL3 gene [2]; [4]): 0.667
- Avg TG normalized to pre-treatment (ANGPTL3 gene [2]; [5]): 0.601
- Avg TG normalized to pre-treatment (ANGPTL3 gene [2]; [6]): 1.086
- Avg TG normalized to pre-treatment (ANGPTL3 gene [2]; [7]): 0.803
- Avg TG normalized to pre-treatment (ANGPTL3 gene [2]; [8]): 0.958
- Avg TG normalized to pre-treatment (ANGPTL3 gene [2]; [9]): 0.862
- Avg TG normalized to pre-treatment (ANGPTL3 gene [2]; [10]): 0.977
- Avg TG normalized to pre-treatment (ANGPTL3 gene [2]; [11]): 0.477
- Avg TG normalized to pre-treatment (ANGPTL3 gene [2]; [12]): 0.362
- Avg TG normalized to pre-treatment (ANGPTL3 gene [2]; [13]): 0.505
- Avg TG normalized to pre-treatment (ANGPTL3 gene [2]; [14]): 0.552
- Avg TG normalized to pre-treatment (ANGPTL3 gene [2]; [15]): 0.598
- Avg TG normalized to pre-treatment (ANGPTL3 gene [2]; [16]): 0.603
- Avg TG normalized to pre-treatment (ANGPTL3 gene [2]; [17]): 0.677
- reduction in triglycerides (ANGPTL3 gene [2]; [18]): 40-60%
- Avg Total Chol normalized to pre-treatment (ANGPTL3 gene [3]; [4]): 0.821
- Avg Total Chol normalized to pre-treatment (ANGPTL3 gene [3]; [5]): 0.774
- Avg Total Chol normalized to pre-treatment (ANGPTL3 gene [3]; [6]): 0.980
- Avg Total Chol normalized to pre-treatment (ANGPTL3 gene [3]; [7]): 0.943
- Avg Total Chol normalized to pre-treatment (ANGPTL3 gene [3]; [8]): 1.105
- Avg Total Chol normalized to pre-treatment (ANGPTL3 gene [3]; [9]): 0.998
- Avg Total Chol normalized to pre-treatment (ANGPTL3 gene [3]; [10]): 0.987
- Avg Total Chol normalized to pre-treatment (ANGPTL3 gene [3]; [11]): 0.586
- Avg Total Chol normalized to pre-treatment (ANGPTL3 gene [3]; [12]): 0.620
- Avg Total Chol normalized to pre-treatment (ANGPTL3 gene [3]; [13]): 0.767
- Avg Total Chol normalized to pre-treatment (ANGPTL3 gene [3]; [14]): 0.761
- Avg Total Chol normalized to pre-treatment (ANGPTL3 gene [3]; [15]): 0.825
- Avg Total Chol normalized to pre-treatment (ANGPTL3 gene [3]; [16]): 0.767
- Avg Total Chol normalized to pre-treatment (ANGPTL3 gene [3]; [17]): 0.807
- reduction in total cholesterol (ANGPTL3 gene [3]; [18]): 23-40%
